Like-named read-outs stand apart in the source and are kept apart here. Each block holds one molecule with its values, some of them ahead of it. No end group written: not given here.
Experiments:
[1] = molecular target: T1, PAK6 catalytic domain (residues 383–674) (Homo sapiens, UniProt Q9NQU5); assay: In vitro PAK6 kinase assay (trans-inhibition by peptides, MBP substrate, radioactive); format: biochemical
T1 construct: recombinant PAK6 catalytic domain (residues 383–674) purified as described above; 6xHis (N, cleaved yes); made in house; host or cells: E. coli BL21(DE3)
Description: Catalytic domain residues 383–674 of PAK6 (UniProt Q9NQU5) were amplified from cDNA (Open Biosystems) then subcloned into a modified pET-32 vector with an N-terminal 6xHis tag cleavable by TEV protease. A single colony of transformed E. coli BL21(DE3) was grown in Luria-Bertani (LB) medium at 37°C for 7 hours with kanamycin sulfate (100 µg/ml). Then the fresh culture was inoculated (1∶100) into in LB supplemented with kanamycin sulfate (100 µg/ml). Protein expression was induced at an A 600 of 0.4 by addition of 0.3 mM isopropyl-thio-galactopyranoside (IPTG) at 18°C for 14 hr. Cells were harvested and then resuspended in lysis buffer (50 mM HEPES pH 7.5, 500 mM NaCl, 0.5 mM TCEP, and 1 mM PMSF). Lysozyme and DNAse-I were added and the mixture was incubated on ice before three cycles of flash-freezing in a dry ice and ethanol mixture and thawing at 4°C. Following sonication and centrifugation, the supernatant was collected and loaded onto a nickel sepharose column equilibrated with 100 ml binding buffer (50 mM HEPES pH 7.5, 500 mM NaCl, 5 mM imidazole, 0.5 mM TCEP, 5% glycerol). Contaminating proteins were washed away with 200 ml wash buffer (50 mM HEPES pH 7.5, 500 mM NaCl, 30 mM imidazole, 0.5 mM TCEP, 5% glycerol). PAK6 catalytic domain was eluted with an imidazole step gradient and identified by SDS-PAGE. Overnight TEV cleavage was performed by adding TEV protease and dialyzing the mixture against size exclusion buffer (50 mM Tris pH 8, 250 mM NaCl, 5 mM TCEP). PAK6 catalytic domain was then reloaded onto the nickel sepharose column to remove remaining uncleaved protein. The sample then was loaded onto a Superdex 75 16/60 gel-filtration column equilibrated with size exclusion buffer.
Kinase activity was assessed using a radioactive assay with myelin basic protein (MBP) as substrate. […] Kinase assays were performed by adding 150 nM of PAK6, 2 µM of MBP as the substrate, 50 µM of cold-ATP and 0.1 µCi of hot [γ-^33P] ATP in Tris buffer (20 mM Tris-HCl pH 8.0, 0.15 M NaCl, 1 mM DTT and 10 mM MgCl2) for a total volume of 25 µl. […] Control peptide ([…]) was purchased from Anaspec and inhibition assays were performed using between 0.5 mM and 4.5 mM of peptide. The reaction was conducted at 30°C for 10 min and stopped by addition of 5X sample buffer and analyzed by SDS-PAGE. Gels were analyzed by exposure to phosphor storage screen (GE) followed by scanning using a Molecular Imager FX Pro Plus System (Bio-Rad) and quantification by optical densitometry Quantity One (Bio-Rad). Relative activities were compared to those measured for PAK6. Measurements were calculated from at least three independent experiments.

[2] = system: type II PAKs and also PAK1; settings: each of the type II PAKs and also PAK1; ref [22]; cited from earlier work
Description: (§1) ATP-competitive small molecule inhibitors of the type II PAKs could be useful as cancer therapeutics. […] Sunitinib (SU11248) is a potent ATP-competitive multi-kinase inhibitor that is indicated for treatment of renal cell carcinoma, imatinib-resistant gastrointestinal stromal tumors, advanced pancreatic neuroendocrine tumors and other tumor types [ ...

human clinical trials = settings: ref [22]; cited from earlier work
Description: as §1

mouse models of cancer = settings: ref [22]; cited from earlier work
Description: as §1

PAK kinases = settings: ref [41], cited from earlier work
Description: (§2) Therefore understanding how sunitinib binds to the type II PAKs may represent a starting point for future small molecule drug discovery. There are currently 6 co-crystal structures of protein kinases in complex with sunitinib deposited in the PDB. These kinases are of VEGFR (4AGD), KIT (3G0E), KIT-D816H mutation (3G0F), ITK (3MIY), CDK2 (3TI1) and phosphorylase kin ...

type II PAKs = settings: range over the family, ref [41], read-out: Ki (estimated range); cited from earlier work
Description: as §2

[3] = 150 nM PAK6, 2 µM MBP, 50 µM cold-ATP, [γ-33P] ATP, 20 mM Tris-HCl pH 8.0, 0.15 M NaCl, 1 mM DTT, 10 mM MgCl2, 30°C, 10 min, SDS-PAGE/phosphor storage screen, 3 independent experiments, tested wild-type 0.06-5.85 mM, P52L 1.8-5.85 mM, control 0.5-4.5 mM, read-out: IC50 (inhibition of PAK6 kinase activity)
[4] = 95% confidence interval of the IC50, 3 independent experiments, read-out: 95% confidence (of IC50)

T1 sequence (Q9NQU5 383-674): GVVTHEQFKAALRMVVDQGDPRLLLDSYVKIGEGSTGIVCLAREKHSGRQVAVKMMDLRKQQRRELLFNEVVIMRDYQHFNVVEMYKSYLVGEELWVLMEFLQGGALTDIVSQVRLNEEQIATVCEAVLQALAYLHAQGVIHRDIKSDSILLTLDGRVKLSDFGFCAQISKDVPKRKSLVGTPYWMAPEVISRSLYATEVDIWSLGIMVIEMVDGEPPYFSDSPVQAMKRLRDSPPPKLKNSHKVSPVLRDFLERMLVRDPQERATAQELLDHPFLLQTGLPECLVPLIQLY

- IC50 [1, 3]: 0.6 mM
- IC50 [1, 4]: 0.51 to 0.71 mM
Molecule: RRPKPVVDP [N-terminal peptide]

Molecule: APRTPGGRR [control peptide]
- IC50 [1]: 3 to 15 mM

- IC50 [1, 3]: 4.2 mM
- IC50 [1, 4]: 3.8 to 4.6 mM
Molecule: RRPKLVVDP [P52L mutant peptide]

Molecule: Cc1nc(Nc2[nH]nc3c2CN(C(=O)N[C@H](CN(C)C)c2ccccc2)C3(C)C)c2sccc2n1 [PF-3758309]
- in vitro activity [2]: displays in vitro activity against each of the type II PAKs and also PAK1
- outcome in human clinical trials (human clinical trials): failed in human clinical trials
- efficacy in mouse models of cancer (mouse models of cancer): effective in mouse models of cancer

Molecule: CCN(CC)CCNC(=O)c1c(C)[nH]c(/C=C2\C(=O)Nc3ccc(F)cc32)c1C [Sunitinib]
- inhibition of the PAK kinases overall (PAK kinases): weak inhibitor
- selectivity (PAK kinases; type II vs type I PAK family members): selectivity for type II over type I PAK family members
- Ki (type II PAKs): 0.5 to 7 µM

— paper PMC3810134, “Substrate and Inhibitor Specificity of the Type II p21-Activated Kinase, PAK6” (PLoS ONE, 2013)
